In the test the test system is mixed fungal spore suspension of Alternaria alternata, Aureobasidium pullulans, Cladosporium herbarum, Phoma violacea, and Stemphylium dendriticum. The test is described as follows: Evaluation as a paint film fungicide (acrylic emulsion paint on wooden test pieces, spray inoculated). It is filed as cell-based. The conditions noted are these: 25°C, four weeks, two scores per cell; for Fungal Growth L2: L2 (leached for two days); for Fungal Growth UL: UL (test pieces not leached); for Fungal Growth L1: L1 (leached with water spray for one day). The method, then: In the following examples, the compositions obtained were subjected to microbiological evaluation as paint film fungicides. The compositions were also tested for anti-algal properties. The microbiological testing was effected as follows: The products were tested for activity against fungi which were one or more of Alternaria alternata, Aureobasidum pullulans, Cladosporium herbarum, Phoma violacea and Stemphylium dendriticum.
The compositions to be tested were obtained as described in Examples 1 to 6 and the Comparative Examples. The compositions were added as a solid blend to samples of an exterior acrylic emulsion paint (based on Revacryl 1A latex at pH 9) in glass bottles and mixed to give final active ingredient levels in the paint of 1.0, 0.5 and 0.25% w/v.
The bottles containing paint plus biocide composition were sealed and stored at 40°C for three days.
Small wooden test pieces were prepared for each paint composition by priming and then brushing on two full even coats.
One set of the coated test pieces was stored at ambient temperature in the dark. A further set of coated test pieces was placed in a leaching device in which the test pieces were sprayed with water for one day and the test pieces were removed from the leaching device and dried. Yet a further set of coated test pieces was subjected to leaching for two days.
The coated test pieces were then transferred to a high humidity chamber. Each test piece was then spray inoculated with a mixed fungal spore suspension of Alternaria alternata, Aureobasidium pullulans, Cladosporium herbarum, Phoma violacea, and Stemphylium dendriticum.
Incubation was carried out at 25°C for four weeks. After this period the paint films were examined for fungal growth by naked eye and by stereo optical microscope.
The compositions of Examples 1 to 6 and the Comparative Examples were evaluated as paint film fungicides using the technique described previously herein. For comparative purposes paints containing only tetrachloroisophthalonitrile (NC); 3-(3,4-dichlorophenyl)-1,1-dimethylurea (DU); 2,3,5,6-thetrachloro-4-(methylsulphonyl) pyridine (DS); di-iodomethyl-4-methylphenylsulphone (AM); or zinc oxide (ZO) were also evaluated under the same conditions.

Where [1] appears, read: 0.25% w/v active ingredient in paint.
Where [2] appears, read: 0.5% w/v active ingredient in paint.
Setting [3] is: 1.0% w/v active ingredient in paint.

For the compound `Cc1ccc(S(=O)(=O)C(I)I)cc1` [AM, di-iodomethyl-4-methylphenylsulphone], the “Fungal Growth L2” value runs as follows: under setting [1], 4,4; under setting [2], 1,2; under setting [3], 0,0. Moreover, the “Fungal Growth UL” value is 0,0 under setting [1], 0,0 under setting [2] and 0,0 under setting [3].
Consider `CS(=O)(=O)c1c(Cl)c(Cl)nc(Cl)c1Cl` [DS, 2,3,5,6-tetrachloro-4-(methylsulphonyl)pyridine], for which the “Fungal Growth L2” value was 5,4 under setting [1], 2,3 under setting [2] and 1,0 under setting [3]. Moreover, the “Fungal Growth UL” value runs as follows: under setting [1], 2,2; under setting [2], 1,1; under setting [3], 0.1.
Take `CN(C)C(=O)Nc1ccc(Cl)c(Cl)c1` [DU, 3-(3,4-dichlorophenyl)-1,1-dimethylurea]: under setting [3], the “Fungal Growth L2” value is 5,5 and the “Fungal Growth UL” value was 5,5.
As to `N#Cc1c(Cl)c(Cl)c(Cl)c(C#N)c1Cl` [NC, tetrachloroisophthalonitrile], the “Fungal Growth L1” value reads like this: under setting [1], 4,4; under setting [2], 4,5; under setting [3], 2,5. Moreover, the “Fungal Growth L2” value was 5,5 under setting [1], 3,5 under setting [2] and 4,5 under setting [3]. The “Fungal Growth UL” value is 3,4 under setting [1], 2,3 under setting [2] and 0,0 under setting [3].

For the origin of these results see patent EP0345955B1, “Anti-microbial composition and use thereof” (IMPERIAL CHEMICAL INDUSTRIES PLC, priority 1988, dated 1989).
